# Data published in patent US7998995B2 (Exelixis Patent Company LLC, priority 2006, dated 2011).
# Tested on: T1, LXR
# T1 construct: fused on or other part: GST fused to the LBD in the FRET assay
# Assay: Measured EC50 or IC50 for LXR (LXRα and/or LXRβ; assay and subtype not given)
# Conditions: IC50 or EC50 class, subtype not specified
# Method: Measured EC50 or IC50 for LXR, and FXR for Compounds of the Invention
# LXR and FXR activities for various compounds of the invention are presented in the following table; those compounds with EC50 or IC50 values <10 μM for at least one of LXRα, LXRβ or FXR are considered to be active. In the following Table, IC50 or EC50 data is represented as follows: A<1 μM, B=1-10 μm, and C>10 μM.
row,EC50,Compound
1,> 10000 nM,"O=C(NCc1cccc(C(F)(F)F)c1)c1cc(C(F)(F)F)nn1-c1ccccc1Cl [Example 106, 1-(2-chlorophenyl)-3-(trifluoromethyl)-N-{[3-(trifluoromethyl)phenyl]methyl}-1H-pyrazole-5-carboxamide]"
2,< 1000 nM,"CS(=O)(=O)c1cccc(-c2ccc(COc3cc(C(F)(F)F)nn3-c3c(Cl)cccc3Cl)c(F)c2)c1 [Example 117, 1-(2,6-dichlorophenyl)-5-({[3-fluoro-3′-(methylsulfonyl)biphenyl-4-yl]methyl}oxy)-3-(trifluoromethyl)-1H-pyrazole]"
3,1000 to 10000 nM,"FC(F)(F)c1cc(COc2ccc(-c3ccccc3)cc2)n(-c2c(Cl)cccc2Cl)n1 [Example 924, 5-[(biphenyl-4-yloxy)methyl]-1-(2,6-dichlorophenyl)-3-(trifluoromethyl)-1H-pyrazole]"
4,1000 to 10000 nM,"CC(C)(C(=O)O)c1cccc(-c2ccc(OCc3cc(C(F)(F)F)nn3-c3ccccc3Cl)cc2)c1 [Example 92, 2-[4′-({[1-(2-chlorophenyl)-3-(trifluoromethyl)-1H-pyrazol-5-yl]methyl}oxy)biphenyl-3-yl]-2-methylpropanoic acid]"
5,> 10000 nM,"CC1(C)CN=C(c2cn(-c3ccc(-c4cccc(S(C)(=O)=O)c4)cc3Cl)c(-c3c(Cl)cccc3Cl)n2)N1 [Example 942, 1′-[3-chloro-3′-(methylsulfonyl)biphenyl-4-yl]-2′-(2,6-dichlorophenyl)-5,5-dimethyl-4,5-dihydro-1H,1′H-2,4′-biimidazole]"
6,< 1000 nM,Cn1oc(=O)nc1-c1cn(-c2ccc(-c3cccc(S(C)(=O)=O)c3)cc2)c(-c2ccccc2C(F)(F)F)n1 [Example 1034]
7,< 1000 nM,CS(=O)(=O)c1cccc(-c2ccc(-n3cc(-c4nc(=O)o[nH]4)nc3-c3ccccc3C(F)(F)F)cc2)c1 [Example 1035]
8,< 1000 nM,"CS(=O)(=O)c1cccc(-c2ccc(-n3cc(N4CCC4)nc3-c3ccccc3C(F)(F)F)cc2)c1 [Example 998, 4-(azetidin-1-yl)-1-(3′-(methylsulfonyl)biphenyl-4-yl)-2-(2-(trifluoromethyl)phenyl)-1H-imidazole]"
9,1000 to 10000 nM,"CN1CCCC1c1cn(-c2ccc(-c3cccc(S(C)(=O)=O)c3)cc2)c(C(C)(C)c2ccccc2Cl)n1 (centres unmarked) [Example 979, 2-[1-(2-chlorophenyl)-1-methylethyl]-4-(1-methylpyrrolidin-2-yl)-1-[3′-(methylsulfonyl)biphenyl-4-l]-1H-imidazole]"
10,< 1000 nM,"CS(=O)(=O)c1cccc(-c2ccc(-n3cc(C4=NCCO4)nc3-c3c(Cl)cccc3Cl)c(Cl)c2)c1 [Example 936, 2-{1-[3-chloro-3′-(methylsulfonyl)biphenyl-4-yl]-2-(2,6-dichlorophenyl)-1H-imidazol-4-yl}-4,5-dihydro-1,3-oxazole]"
11,< 1000 nM,"CS(=O)(=O)c1cccc(-c2ccc(COc3cc(C(F)(F)F)nn3-c3c(Cl)cccc3Cl)cc2)c1 [Example 116, 1-(2,6-dichlorophenyl)-5-({[3′-(methylsulfonyl)biphenyl-4-yl]methyl}oxy)-3-(trifluoromethyl)-1H-pyrazole]"
12,1000 to 10000 nM,"CS(=O)(=O)c1cccc(-c2ccc(-n3cc(-c4ncco4)nc3-c3ccccc3Cl)c(Cl)c2)c1 [Example 1012, 2-(1-(3-chloro-3′-(methylsulfonyl)biphenyl-4-yl)-2-(2-chlorophenyl)-1H-imidazol-4-yl)oxazole]"
13,< 1000 nM,"CS(=O)(=O)c1cccc(-c2ccc(OCc3nc(C(F)(F)F)cn3-c3c(Cl)cccc3Cl)cc2)c1 [Example 114, 1-(2,6-dichlorophenyl)-2-({[3′-(methylsulfonyl)biphenyl-4-yl]oxy}methyl)-4-(trifluoromethyl)-1H-imidazole]"
14,1000 to 10000 nM,"CS(=O)(=O)c1cccc(-c2ccc(-n3cc(C4(O)CCCC4)nc3-c3ccccc3Cl)cc2)c1 [Example 981, 1-(2-(2-chlorophenyl)-1-(3′-(methylsulfonyl)biphenyl-4-yl)-1H-imidazol-4-yl)cyclopentanol]"
